In patent publication US9708331B2, “Metabotrophic glutamate receptor 5 modulators and methods of use thereof” (SUNOVION PHARMACEUTICALS INC., priority 2011, dated 2017):

These compounds were tested against mGluR5 (Homo sapiens, UniProt P41594) (assay: mGluR5 PAM EC50 (positive allosteric modulator potency)).
Type: cell-based

mGluR5, sequence (P41594 21-1212): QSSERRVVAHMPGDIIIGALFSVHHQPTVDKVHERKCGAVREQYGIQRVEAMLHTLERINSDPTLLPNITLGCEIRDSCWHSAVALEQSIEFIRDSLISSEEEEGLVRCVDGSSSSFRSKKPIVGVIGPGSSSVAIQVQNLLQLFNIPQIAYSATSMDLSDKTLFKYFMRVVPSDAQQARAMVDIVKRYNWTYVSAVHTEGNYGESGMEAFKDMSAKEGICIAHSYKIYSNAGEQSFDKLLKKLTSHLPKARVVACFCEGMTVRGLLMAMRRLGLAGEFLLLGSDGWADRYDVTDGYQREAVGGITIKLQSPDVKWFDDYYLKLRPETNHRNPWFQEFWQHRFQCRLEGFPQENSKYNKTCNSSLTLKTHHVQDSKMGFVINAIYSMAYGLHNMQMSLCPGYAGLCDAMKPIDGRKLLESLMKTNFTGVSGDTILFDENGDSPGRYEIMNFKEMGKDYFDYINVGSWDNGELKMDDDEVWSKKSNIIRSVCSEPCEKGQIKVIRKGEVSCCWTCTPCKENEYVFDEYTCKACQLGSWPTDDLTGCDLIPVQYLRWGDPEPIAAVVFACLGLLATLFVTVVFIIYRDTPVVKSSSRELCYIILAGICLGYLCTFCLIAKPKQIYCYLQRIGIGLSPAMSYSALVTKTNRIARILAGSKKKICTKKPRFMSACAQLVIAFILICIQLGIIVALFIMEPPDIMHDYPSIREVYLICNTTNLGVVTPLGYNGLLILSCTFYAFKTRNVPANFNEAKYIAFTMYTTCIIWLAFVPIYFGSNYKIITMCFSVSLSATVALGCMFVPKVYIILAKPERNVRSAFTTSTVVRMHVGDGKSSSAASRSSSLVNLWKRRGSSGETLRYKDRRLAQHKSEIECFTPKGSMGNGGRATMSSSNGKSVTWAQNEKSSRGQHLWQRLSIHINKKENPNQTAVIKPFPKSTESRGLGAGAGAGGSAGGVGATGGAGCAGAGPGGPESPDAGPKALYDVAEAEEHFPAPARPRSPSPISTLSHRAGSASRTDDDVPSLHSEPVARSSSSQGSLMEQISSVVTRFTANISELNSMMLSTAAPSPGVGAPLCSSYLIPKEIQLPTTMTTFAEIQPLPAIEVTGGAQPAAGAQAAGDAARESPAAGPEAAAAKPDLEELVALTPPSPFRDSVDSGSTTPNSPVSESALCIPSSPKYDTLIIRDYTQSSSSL

Row | SMILES | EC50 [nM]
1 | CC1(C)Cc2nc3cc(C(=O)Nc4ccccn4)ccc3c(=O)n2C1 [Example 4.17, 2,2-dimethyl-9-oxo-N-(pyridin-2-yl)-1,2,3,9-tetrahydropyrrolo[2,1-b]quinazoline-6-carboxamide] | 300 to 1000
2 | CC1(C)Cn2c(nc3cc(C#Cc4ccccn4)cnc3c2=O)C1F (stereo not drawn) [Example 1.20, 6-fluoro-7,7-dimethyl-3-(pyridin-2-ylethynyl)-7,8-dihydropyrido[3,2-d]pyrrolo[1,2-a]pyrimidin-10(6H)-one] | 100 to 300
3 | CC1(C)CCc2nc3cc(C#Cc4ncccc4F)ccc3c(=O)n2C1 [Example 2.86, 3-((3-fluoropyridin-2-yl)ethynyl)-8,8-dimethyl-8,9-dihydro-6H-pyrido[2,1-b]quinazolin-11(7H)-one] | < 10
4 | CCC1CCc2nc3cc(C#Cc4ccccn4)ccc3c(=O)n2CC1 (single isomer, unassigned) [Example 3.13a] | < 10
5 | O=c1c2ccc(C#Cc3ccccn3)cc2nc2n1CC1(CCC2)COC1 [Example 3.38, 3-(pyridin-2-ylethynyl)-7,8-dihydro-6H-spiro[azepino[2,1-b]quinazoline-9,3′-oxetan]-12(10H)-one] | 10 to 30
6 | Cc1cc(C#Cc2ccc3c(=O)n4c(nc3c2)CCC(C)(C)C4)ccn1 [Example 2.46, 8,8-dimethyl-3-((2-methylpyridin-4-yl)ethynyl)-8,9-dihydro-6H-pyrido[2,1-d]quinazolin-11(7H)-one] | 10 to 30
7 | CC1(C)Cc2nc3cc(NC(=O)c4ccccn4)ccc3c(=O)n2C1 [Example 4.18, N-(2,2-dimethyl-9-oxo-1,2,3,9-tetrahydropyrrolo[2,1-b]quinazolin-6-yl)picolinamide] | 300 to 1000
8 | Cc1csc(/C=C/c2ccc3c(=O)n4c(nc3c2)CCC(C)(C)C4)n1 [Example 4.3, (E)-8,8-dimethyl-3-(2-(4-methylthiazol-2-yl)vinyl)-8,9-dihydro-6H-pyrido[2,1-b]quinazolin-11(7H)-one] | 10 to 30
9 | O=c1c2ccc(C#Cc3ccccn3)cc2nc2n1CCC(F)CC2 (single isomer, unassigned) [Example 3.1a] | 30 to 100
10 | CC1CCc2nc3c(F)c(C#Cc4ccccn4)ccc3c(=O)n2CC1 (single isomer, unassigned) [Example 3.12b] | 10 to 30
11 | CC1(C)CCc2nc3cc(-c4ncc(-c5ccccn5)cn4)ccc3c(=O)n2C1 [Example 6.42, 8,8-dimethyl-3-(5-(pyridin-2-yl)pyrimidin-2-yl)-8,9-dihydro-6H-pyrido[2,1-b]quinazolin-11(7H)-one] | 300 to 1000
12 | CC1CCc2nc3cc(C#Cc4cc(C#N)ccn4)ccc3c(=O)n2CC1 (stereo not drawn) [Example 3.19, 2-((8-methyl-12-oxo-6,7,8,9,10,12-hexahydroazepino[2,1-b]quinazolin-3-yl)ethynyl)isonicotinonitrile] | 30 to 100
13 | CC1Cn2c(nc3cc(C#Cc4ccccn4)cnc3c2=O)CCC1(F)F (single isomer, unassigned) [Example 3.31e] | 30 to 100
14 | CC(C)(F)C1Cc2nc3cc(C#Cc4ccccn4)ccc3c(=O)n2C1 (single isomer, unassigned) [Example 1.3a] | < 10
15 | O=c1c2ccc(C#Cc3ccccn3)cc2nc2n1CC1CCCCN21 (stereo not drawn) [Example 1.23, 3-(pyridin-2-ylethynyl)-9,10,10a,11-tetrahydro-7H-pyrido[1′,2′:3,4]imidazo[2,1-b]quinazolin-13(8H)-one] | 30 to 100
16 | CCC1(F)CCc2nc3cc(C#Cc4ccccn4)ccc3c(=O)n2CC1 (stereo not drawn) [Example 3.17, 8-ethyl-8-fluoro-3-(pyridin-2-ylethynyl)-7,8,9,10-tetrahydroazepino[2,1-b]quinazolin-12(6H)-one] | 10 to 30
17 | C=CC1(O)CCc2nc3cc(C#Cc4ccccn4)ccc3c(=O)n2C1 (stereo not drawn) [Example 2.18, 8-hydroxy-3-(pyridin-2-ylethynyl)-8-vinyl-8,9-dihydro-6H-pyrido[2,1-b]quinazolin-11(7H)-one] | 300 to 1000
18 | O=c1c2ccc(C#Cc3ccccn3)cc2nc2n1C[C@H]1CCCN1C2 [Example 2.104, (R)-8-(pyridin-2-ylethynyl)-2,3,13,13a-tetrahydro-1H-pyrrolo[1′,7′:4,5]pyrazino[2,1-b]quinazolin-11(5H)-one] | 30 to 100
19 | O=c1c2ncc(C#Cc3ccccn3)cc2nc2n1CCC(F)(F)CC2 [Example 3.16, 8,8-difluoro-3-(pyridin-2-ylethynyl)-7,8,9,10-tetrahydropyrido[3′,2′:4,5]pyrimido [1,2-a]azepin-12(6H)-one] | 100 to 300
20 | CC1(C)Cn2c(nc3cc(C#Cc4ccccn4)ccc3c2=O)C1F (single isomer, unassigned) [Example 1.11a] | < 10
21 | CC1(C)CCc2nc3cc(C#Cc4cnccc4F)ccc3c(=O)n2C1 [Example 2.90, 3-((4-fluoropyridin-3-yl)ethynyl)-8,8-dimethyl-8,9-dihydro-6H-pyrido[2,1-b]quinazolin-11(7H)-one] | < 10
22 | CC1(C)CCc2nc3cc(OCc4ccccn4)ccc3c(=O)n2C1 [Example 4.5, 8,8-dimethyl-3-(pyridin-2-ylmethoxy)-8,9-dihydro-6H-pyrido[2,1-b]quinazolin-11(7H)-one] | 30 to 100
23 | Cc1cnc(C#Cc2ccc3c(=O)n4c(nc3c2)CCC(C)(C)C4)s1 [Example 2.50, 8,8-dimethyl-3-((5-methylthiazol-2-yl)ethynyl)-8,9-dihydro-6H-pyrido[2,1-b]quinazolin-11(7H)-one] | < 10

Row | SMILES | EC50 [nM]
24 | O=c1c2ccc(C#Cc3ccccn3)cc2nc2n1CCN1CCC2C1 (stereo not drawn) [Example 3.6, 9-(pyridin-2-ylethynyl)-1,2,5,6-tetrahydro-3,6-methano[1,4]diazocino[8,1-b]quinazolin-12(4H)-one] | 100 to 300
25 | COCC1Cc2nc3cc(C#Cc4ccccn4)ccc3c(=O)n2C1 (single isomer, unassigned) [Example 1.1b] | 100 to 300
26 | CC1(C)CCn2c(nc3cc(/C=C/c4cc(C#N)ccn4)ccc3c2=O)C1 [Example 4.1a, (E)-2-(2-(7,7-dimethyl-11-oxo-7,8,9,11-tetrahydro-6H-pyrido[2,1-b]quinazolin-3-yl)vinyl)isonicotinonitrile] | 300 to 1000
27 | CC1(C)CCn2c(nc3cc(C#Cc4cc(C#N)ccn4)ccc3c2=O)C1 [Example 2.25a, 2-((7,7-dimethyl-11-oxo-7,8,9,11-tetrahydro-6H-pyrido[2,1-b]quinazolin-3-yl)ethynyl)isonicotinonitrile] | 10 to 30
28 | CC1(C)CCc2nc3cc(C#Cc4ccccc4F)ccc3c(=O)n2C1 [Example 2.73, 3-((2-fluorophenyl)ethynyl)-8,8-dimethyl-8,9-dihydro-6H-pyrido[2,1-b]quinazolin-11(7H)-one] | 10 to 30
29 | O=c1c2ncc(C#Cc3ccccn3)cc2nc2n1CC(F)(F)CCC2 [Example 3.26, 9,9-difluoro-3-(pyridin-2-ylethynyl)-7,8,9,10-tetrahydropyrido[3′,2′:4,5]pyrimido [1,2-a]azepin-12(6H)-one] | 30 to 100
30 | COCCC1Cc2nc3cc(C#Cc4ccccn4)ccc3c(=O)n2C1 (stereo not drawn) [Example 1.5, 2-(2-methoxyethyl)-6-(pyridin-2-ylethynyl)-2,3-dihydropyrrolo[2,1-b]quinazolin-9(1H)-one] | 100 to 300
31 | CC1(C)Cn2c(nc3cc(C#Cc4ccccn4)ccc3c2=O)C1F (single isomer, unassigned) [Example 1.11b] | 10 to 30
32 | CC1(C)CCc2nc3cc(C#Cc4ccnc(F)c4)ccc3c(=O)n2C1 [Example 2.92, 3-((2-fluoropyridin-4-yl)ethynyl)-8,8-dimethyl-8,9-dihydro-6H-pyrido[2,1-b]quinazolin-11(7H)-one] | < 10
33 | CC1(C)CCc2nc3cc(-c4nnc(-c5ccccn5)s4)ccc3c(=O)n2C1 [Example 6.38, 8,8-dimethyl-3-(5-(pyridin-2-yl)-1,3,4-thiadiazol-2-yl)-8,9-dihydro-6H-pyrido[2,1-b]quinazolin-11(7H)-one] | 100 to 300
34 | CCC1CCCc2nc3cc(C#Cc4ccccn4)ccc3c(=O)n21 (single isomer, unassigned) [Example 2.7b] | < 10
35 | CC1(C)CCc2nc3cc(C#Cc4cccc(C#N)n4)ccc3c(=O)n2C1 [Example 2.24b, 6-((8,8-dimethyl-11-oxo-7,8,9,11-tetrahydro-6H-pyrido[2,1-b]quinazolin-3-yl)ethynyl)picolinonitrile] | 10 to 30
36 | O=c1c2ccc(C#Cc3ccccn3)cc2nc2n1CCC1(CO)CC21 (stereo not drawn) [Example 2.103, 1a-(hydroxymethyl)-8-(pyridin-2-ylethynyl)-1,2,3,10b-tetrahydrocyclopropa[3,4]pyrido [2,1-b]quinazolin-5(1aH)-one] | 100 to 300
37 | O=c1c2ncc(C#Cc3ccccn3)cc2nc2n1CCC(C(F)(F)F)C2 (stereo not drawn) [Example 2.21, 3-(pyridin-2-ylethynyl)-7-(trifluoromethyl)-8,9-dihydro-6H-dipyrido[1,2-a:3′,2′-d]pyrimidin-11(7H)-one] | 30 to 100
38 | CC1(C)CCc2nc3cc(C#Cc4ncc(F)cn4)ccc3c(=O)n2C1 [Example 2.54, 3-((5-fluoropyrimidin-2-yl)ethynyl)-8,8-dimethyl-8,9-dihydro-6H-pyrido[2,1-b]quinazolin-11(7H)-one] | 30 to 100
39 | CC1(F)CCc2nc3cc(C#Cc4ccccn4)ccc3c(=O)n2C1 (single isomer, unassigned) [Example 2.13a] | 10 to 30
40 | O=c1c2ccc(C#Cc3ccccn3)cc2nc2n1CCC1(CCCO1)CC2 (single isomer, unassigned) [Example 3.3b] | 100 to 300
41 | CC1(F)CCc2nc3cc(C#Cc4ccccn4)cnc3c(=O)n2CC1 (single isomer, unassigned) [Example 3.10a] | 100 to 300
42 | CC(C)(O)C1Cc2nc3cc(C#Cc4ccccn4)ccc3c(=O)n2C1 (single isomer, unassigned) [Example 1.2a] | 10 to 30
43 | CCC1CCc2nc3cc(C#Cc4ccccn4)ccc3c(=O)n2CC1 (single isomer, unassigned) [Example 3.13b] | 10 to 30
44 | O=c1c2ccc(C#Cc3ccccn3)cc2nc2n1CC(C(F)(F)F)CC2 (single isomer, unassigned) [Example 2.14b] | < 10
45 | O=c1c2ncc(C#Cc3ccccn3)cc2nc2n1CCC(C(F)(F)F)CC2 (single isomer, unassigned) [Example 3.9a] | 30 to 100
